Measurements published in publication PMC9045377, “CpxA Phosphatase Inhibitor Activates CpxRA and Is a Potential Treatment for Uropathogenic Escherichia coli in a Murine Model of Infection” (Microbiology Spectrum, 2022).
Entries after “also recorded” stand apart in the source; their conditions may differ. Where a name gives a salt, the structure may show the parent alone.

Experiments:
UPEC strain CFT073 [1] = format: in vivo, Escherichia coli (in female CBA/J mice); settings: compound 6 trial
Procedure: Four groups of eight female CBA/J mice were transurethrally inoculated with a target dose of ∼10^8 CFU of either CFT073 or CFT073ΔcpxA::cat. One group was treated with ciprofloxacin (2.5 mg/kg/dose dissolved in sterile distilled water) s.c. 12, 24, 36, 48, and 60 h after inoculation with CFT073 as described ([31]). The untreated CFT073 and CFT073ΔcpxA::cat inoculated groups were given the vehicle control s.c. at 12, 24, 36, 48, and 60 h after inoculation. The compound 6 treated group were given the drug (100 mg/kg) s.c. at 12, 36, and 60 h after inoculation with CFT073 and received the vehicle control s.c. at 24 and 48 h. The animals were sacrificed 4 h after the last treatment (64 h postinoculation) and CFU per milliliter or CFU per gram of tissue was determined in the urine, bladder, and kidneys.
Animal experiments were conducted according to the guidelines of the University of Michigan Institutional Animal Care and Use Committee. For the animal infection experiments, bacterial strains were cultured at 37°C in LB medium overnight with shaking ([30]). Female CBA/J mice (Jackson Laboratories, Bar Harbor, ME) were inoculated transurethrally with a target dose of ∼10^8 CFU of CFT073 or CFT073ΔcpxA::cat. Mice were subsequently treated 12 h later either with the vehicle, ciprofloxacin hydrochloride (PanReac AppliChem ITW Reagents; Jade Scientific), compound 1, compound 6, or compound 26 as described in Results and euthanized 4 h after the last treatment. Bacterial loads of each strain were calculated from the urine, bladder, and kidneys of mice as previously described; the limits of detection for these assays were 100 CFU/mL or 100 CFU/g of urine and tissue, respectively ([33]). Values of 50 CFU/mL or 50 CFU/g were assigned to specimens whose yields were below the limit of detection.
Due to the extreme skewness of the data, natural log transformation was used before the data were analyzed statistically. Descriptive statistics were calculated for all of the log-transformed variables. Statistical comparisons were done using analysis of variance (ANOVA) with follow-up pairwise tests adjusted for multiple comparisons using the Tukey procedure.

UPEC strain CFT073 [2] = format: in vivo, Escherichia coli (in female CBA/J mice)
[3] = Toxicity / clinical signs in mice; format: in vivo, female CBA/J mice; settings: 100 mg/kg s.c. twice a day for 3 days
Procedure: We tested our initial hit, compound 1 ([31]) (Fig. 1), for toxicity in a murine model using criteria described in Materials and Methods. […] To test compound 1 for efficacy, female CBA/J mice were transurethrally inoculated with ∼1 × 10^8 CFU of UPEC strain CFT073; 12 h later, mice were treated with 100 mg/kg compound 1 (n = 10) or the vehicle control (n = 5) s.c. twice a day for 3 days and then sacrificed 4 h after the last dose. No effect was seen on the recovery of E. coli CFT073 in the urine, bladder, or kidneys (see Fig. S1 in the supplemental material). As compound 1 lacked efficacy, we aimed to improve the scaffold to enhance potency and eliminate the nitro group liability ([32]).
We developed a high-performance liquid chromatography-tandem mass spectrometry (HPLC-MS/MS) assay to measure compound 6 with a lower limit of quantification of 1 ng/mL. Single-dose PK parameters of compound 6 were determined in female CBA/J mice (n = 15) given 100 mg/kg s.c. dissolved in the vehicle. Blood was obtained from groups of 3 mice 1, 2, 4, 8, and 24 h postinjection.
Animal experiments were conducted according to the guidelines of the Indiana University School of Medicine Institutional Animal Care and Use Committee by the IU Simon Comprehensive Cancer Center In Vivo Therapeutics Core, a component of the Indiana Clinical Translational Science Institute. For the pilot toxicity study with compound 1, 4- to 6-week-old CBA/J female mice were obtained from Jackson Laboratory (Bar Harbor, ME) and were treated with compound 1 or the vehicle control twice a day for 3 days as described in the results. […] Toxicity was determined by the following criteria: deteriorating health-hunched posture, lack of grooming, failure to thrive, failure to eat and drink for >48 h, rapid loss of 15 to 20% body weight, inactivity with hunched posture, loss of righting reflex and inability to maintain upright posture, loss of general body condition with spine becoming visible, and dehiscence of wounds and/or evidence of infection at injection sites not responsive to veterinary treatment.

CpxRA = test system: CpxRA; parameters: method as in PMID 31104993; settings: β-galactosidase reporter assay in E. coli; read-out: mean 50% effective concentration (EC50), CpxRA activation; cited from earlier work

Structure (SMILES)	CFU of CFT073 recovered in urine vs CFT073-inoculated vehicle control (UPEC strain CFT073 [1]; 8 mice/group, compound 6 100 mg/kg s.c. at 12, 36, 60 h, ciprofloxacin 2.5 mg/kg/dose s.c. at 12, 24, 36, 48, 60 h, sacrifice 64 h)	CFU of CFT073 recovered in kidneys vs CFT073-inoculated vehicle control (UPEC strain CFT073 [1]; same regimens)	recoverable CFU in urine vs CFT073-inoculated vehicle-treated controls (UPEC strain CFT073 [2]; compound 26 trial, 8 mice/group, compound 26 100 mg/kg s.c. at 12, 36, 60 h, ciprofloxacin 2.5 mg/kg/dose s.c. at 12, 24, 36, 48, 60 h, sacrifice 64 h)	recoverable CFU in kidneys vs CFT073-inoculated vehicle-treated controls (UPEC strain CFT073 [2]; compound 26 trial, same regimens)	duration of decreased activity after each dose [3] [min]	toxicity ([3]; n = 3, observed 14 days)	EC50 (CpxRA) [µM]	recovery of E. coli CFT073 in the urine, bladder, or kidneys vs vehicle control (UPEC strain CFT073 [2]; 100 mg/kg s.c. twice a day for 3 days from 12 h after ~1 × 10^8 CFU transurethral, sacrificed 4 h after last dose)
O=C(O)c1cn(C2CC2)c2cc(N3CCNCC3)c(F)cc2c1=O [ciprofloxacin, ciprofloxacin hydrochloride, reference compound]	significantly reduced	significantly reduced	significantly lower	significantly lower				
NC1CCCc2c1[nH]c1ccc([N+](=O)[O-])cc21 (centres unmarked) [compound 1, 6-nitro-2,3,4,9-tetrahydro-1H-carbazol-1-amine]					20	exhibited no toxicity	24.8	no significant; also recorded: No effect
